Calls of active or inactive are those of the source.
Legend:
[1] = A Cell Based Secondary Assay To Explore Cytotoxicity of Compounds that Sensitize Mycobacterium Tuberculosis to Beta-Lactam Antibiotics.; type: functional
[2] = Luminescence Cell-Based Dose Retest to Confirm Inhibitors of Cancer Stem Cells. [Related pubchem assays (depositor defined):AID2717, AID2721]; type: functional; conditions: Homo sapiens
Escherichia coli = assay: microbe, parasite or virus in culture
[3] = molecular target: Dual specificity protein kinase CLK1 (Homo sapiens, UniProt P49759); assay: CLK1 kinase inhibitors, off-target check, dose response, selectivity assay for Dyrk1A inhibitor project, biochemical, cherry-picked samples (AID 588811)
Sequence of Dual specificity protein kinase CLK1 (P49759 whole entry): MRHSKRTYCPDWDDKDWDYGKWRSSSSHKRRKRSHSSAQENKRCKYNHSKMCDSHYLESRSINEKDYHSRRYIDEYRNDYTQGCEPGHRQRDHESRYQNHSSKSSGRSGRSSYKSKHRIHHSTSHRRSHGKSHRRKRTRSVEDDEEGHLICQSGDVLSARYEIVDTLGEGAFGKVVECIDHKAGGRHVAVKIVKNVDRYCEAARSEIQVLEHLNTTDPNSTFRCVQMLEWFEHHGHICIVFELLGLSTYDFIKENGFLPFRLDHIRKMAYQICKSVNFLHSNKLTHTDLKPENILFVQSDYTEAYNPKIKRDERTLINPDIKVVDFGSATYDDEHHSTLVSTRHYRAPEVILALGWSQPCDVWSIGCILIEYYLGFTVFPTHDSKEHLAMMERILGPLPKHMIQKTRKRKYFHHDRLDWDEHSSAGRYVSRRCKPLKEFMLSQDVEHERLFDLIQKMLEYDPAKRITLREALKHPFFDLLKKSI

[4] = molecular target: Glucose-6-phosphate 1-dehydrogenase (Homo sapiens, UniProt P11413); assay: human G6PD enzyme inhibitors, dose response, selectivity assay for P. falciparum G6PD inhibitor project, biochemical, fluorescence (AID 504792); type: functional
Sequence of Glucose-6-phosphate 1-dehydrogenase (P11413 whole entry): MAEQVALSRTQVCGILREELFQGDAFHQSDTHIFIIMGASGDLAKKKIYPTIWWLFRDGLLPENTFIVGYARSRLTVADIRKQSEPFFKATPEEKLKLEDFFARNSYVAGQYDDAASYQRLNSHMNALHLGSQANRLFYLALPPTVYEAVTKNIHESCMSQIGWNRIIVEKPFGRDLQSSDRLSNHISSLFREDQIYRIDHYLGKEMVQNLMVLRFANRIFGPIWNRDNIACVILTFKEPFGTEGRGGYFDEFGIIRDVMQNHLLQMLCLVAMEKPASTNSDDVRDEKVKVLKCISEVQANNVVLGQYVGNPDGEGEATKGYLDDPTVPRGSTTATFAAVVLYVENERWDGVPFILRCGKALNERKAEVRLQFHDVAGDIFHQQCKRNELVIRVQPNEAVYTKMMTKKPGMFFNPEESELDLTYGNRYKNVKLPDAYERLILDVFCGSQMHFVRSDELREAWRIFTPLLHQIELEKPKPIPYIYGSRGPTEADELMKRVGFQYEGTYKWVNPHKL

[5] = HeLa cell cytotoxicity, dose response, cytotoxicity control for MgcRacGAP inhibitor project (AID 624300); type: functional
[6] = molecular target: T1, Rac GTPase-activating protein 1 (Homo sapiens, UniProt Q9H0H5); assay: MgcRacGAP GTPase-activating activity inhibitors, confirmation, biochemical, ADP Hunter fluorescence, primary and confirmatory (AID 624330); type: functional
T1 sequence (Q9H0H5 whole entry): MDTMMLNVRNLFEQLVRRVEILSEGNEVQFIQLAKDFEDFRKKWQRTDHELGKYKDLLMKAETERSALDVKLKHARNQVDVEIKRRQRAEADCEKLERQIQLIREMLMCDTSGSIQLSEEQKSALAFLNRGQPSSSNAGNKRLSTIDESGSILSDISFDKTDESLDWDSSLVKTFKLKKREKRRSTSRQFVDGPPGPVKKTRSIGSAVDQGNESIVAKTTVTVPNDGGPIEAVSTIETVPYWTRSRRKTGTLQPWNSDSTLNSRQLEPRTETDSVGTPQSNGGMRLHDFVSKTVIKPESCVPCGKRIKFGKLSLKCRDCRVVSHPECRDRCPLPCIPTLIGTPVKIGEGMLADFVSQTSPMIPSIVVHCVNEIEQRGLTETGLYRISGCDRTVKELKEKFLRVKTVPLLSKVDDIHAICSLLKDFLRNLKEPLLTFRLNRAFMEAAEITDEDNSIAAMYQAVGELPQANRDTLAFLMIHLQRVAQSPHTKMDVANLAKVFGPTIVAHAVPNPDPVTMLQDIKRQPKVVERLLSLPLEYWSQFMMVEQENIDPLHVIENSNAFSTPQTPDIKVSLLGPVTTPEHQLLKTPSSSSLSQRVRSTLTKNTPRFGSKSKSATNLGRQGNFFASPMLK

Jurkat = assay: antigen receptor-induced NF-kB inhibitors, dose response, Jurkat, luciferase reporter, luminescence, B- and T-cell (AID 489004); type: functional, cell-based; conditions: Homo sapiens;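 also: NF-kB luciferase reporter Jurkat cells stimulated with PMA plus ionomycin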
[7] = cytotoxicity in HEK-293T NF-kB-Luc cells, dose response, cytotoxicity control for B/T-cell NF-kB inhibitor project, cell-based, uHTS hits (AID 489019); type: functional;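 also: IC50 reflects cytotoxicity as loss of cell viability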
[8] = molecular target: T2, Microphthalmia-associated transcription factor (Homo sapiens, UniProt O75030); assay: TRPM1 promoter luciferase signal decrease, dose response, MITF inhibitor project, cell-based, SK-MEL-5, cherry-picked, set 3 (AID 493073); type: functional
T2 sequence (O75030 whole entry): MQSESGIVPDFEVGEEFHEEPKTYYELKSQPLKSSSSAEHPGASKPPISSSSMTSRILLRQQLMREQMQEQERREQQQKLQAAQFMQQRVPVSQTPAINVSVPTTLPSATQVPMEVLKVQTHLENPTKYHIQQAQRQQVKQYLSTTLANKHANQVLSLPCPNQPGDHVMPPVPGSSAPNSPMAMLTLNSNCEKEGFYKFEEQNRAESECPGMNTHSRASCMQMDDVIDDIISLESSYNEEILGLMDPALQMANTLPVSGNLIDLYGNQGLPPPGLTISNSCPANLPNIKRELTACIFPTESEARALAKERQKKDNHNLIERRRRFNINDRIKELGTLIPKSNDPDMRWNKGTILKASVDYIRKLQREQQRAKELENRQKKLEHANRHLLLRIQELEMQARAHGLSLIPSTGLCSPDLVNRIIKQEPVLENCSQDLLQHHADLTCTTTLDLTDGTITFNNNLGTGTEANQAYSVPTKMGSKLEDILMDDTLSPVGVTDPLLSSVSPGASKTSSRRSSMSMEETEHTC

Hexokinase-1 = Hexokinase-1 (Homo sapiens, UniProt P19367); assay: SAR analysis of small molecule inhibitors of hexokinase domain containing I (HKDC1) in the hexokinase 1 selectivity assay. [Related pubchem assays (depositor defined):AID493160, AID493190]; type: functional
Sequence of Hexokinase-1 (P19367 whole entry, the tested form may be a part): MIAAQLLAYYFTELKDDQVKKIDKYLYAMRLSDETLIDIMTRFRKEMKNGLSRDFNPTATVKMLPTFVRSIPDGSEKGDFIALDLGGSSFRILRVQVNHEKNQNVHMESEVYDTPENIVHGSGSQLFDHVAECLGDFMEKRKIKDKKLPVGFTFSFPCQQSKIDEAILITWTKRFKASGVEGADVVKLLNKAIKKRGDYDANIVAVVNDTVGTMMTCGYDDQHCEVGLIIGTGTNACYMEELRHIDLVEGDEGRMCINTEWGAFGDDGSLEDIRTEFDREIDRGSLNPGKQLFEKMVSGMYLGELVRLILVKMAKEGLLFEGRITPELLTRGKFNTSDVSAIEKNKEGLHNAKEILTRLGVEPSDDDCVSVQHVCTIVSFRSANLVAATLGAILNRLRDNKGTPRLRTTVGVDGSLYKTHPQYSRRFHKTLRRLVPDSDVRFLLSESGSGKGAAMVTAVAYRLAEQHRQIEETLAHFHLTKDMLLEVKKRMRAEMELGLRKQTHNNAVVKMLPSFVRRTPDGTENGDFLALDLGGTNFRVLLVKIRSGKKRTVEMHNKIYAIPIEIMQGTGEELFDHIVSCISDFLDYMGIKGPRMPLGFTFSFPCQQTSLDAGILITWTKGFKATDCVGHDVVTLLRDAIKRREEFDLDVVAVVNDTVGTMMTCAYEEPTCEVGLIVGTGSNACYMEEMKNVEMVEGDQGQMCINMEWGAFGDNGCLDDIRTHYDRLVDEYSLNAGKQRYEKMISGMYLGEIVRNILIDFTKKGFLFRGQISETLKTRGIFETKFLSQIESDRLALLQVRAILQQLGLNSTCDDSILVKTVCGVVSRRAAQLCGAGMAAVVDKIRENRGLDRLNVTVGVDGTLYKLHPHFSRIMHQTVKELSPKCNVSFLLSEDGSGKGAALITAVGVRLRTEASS

Hexokinase HKDC1 = Hexokinase HKDC1 (Homo sapiens, UniProt Q2TB90); assay: SAR analysis of small molecule inhibitors of hexokinase domain containing I (HKDC1). [Related pubchem assays (depositor defined):AID493160, AID493190]; type: functional
Sequence of Hexokinase HKDC1 (Q2TB90 whole entry, the tested form may be a part): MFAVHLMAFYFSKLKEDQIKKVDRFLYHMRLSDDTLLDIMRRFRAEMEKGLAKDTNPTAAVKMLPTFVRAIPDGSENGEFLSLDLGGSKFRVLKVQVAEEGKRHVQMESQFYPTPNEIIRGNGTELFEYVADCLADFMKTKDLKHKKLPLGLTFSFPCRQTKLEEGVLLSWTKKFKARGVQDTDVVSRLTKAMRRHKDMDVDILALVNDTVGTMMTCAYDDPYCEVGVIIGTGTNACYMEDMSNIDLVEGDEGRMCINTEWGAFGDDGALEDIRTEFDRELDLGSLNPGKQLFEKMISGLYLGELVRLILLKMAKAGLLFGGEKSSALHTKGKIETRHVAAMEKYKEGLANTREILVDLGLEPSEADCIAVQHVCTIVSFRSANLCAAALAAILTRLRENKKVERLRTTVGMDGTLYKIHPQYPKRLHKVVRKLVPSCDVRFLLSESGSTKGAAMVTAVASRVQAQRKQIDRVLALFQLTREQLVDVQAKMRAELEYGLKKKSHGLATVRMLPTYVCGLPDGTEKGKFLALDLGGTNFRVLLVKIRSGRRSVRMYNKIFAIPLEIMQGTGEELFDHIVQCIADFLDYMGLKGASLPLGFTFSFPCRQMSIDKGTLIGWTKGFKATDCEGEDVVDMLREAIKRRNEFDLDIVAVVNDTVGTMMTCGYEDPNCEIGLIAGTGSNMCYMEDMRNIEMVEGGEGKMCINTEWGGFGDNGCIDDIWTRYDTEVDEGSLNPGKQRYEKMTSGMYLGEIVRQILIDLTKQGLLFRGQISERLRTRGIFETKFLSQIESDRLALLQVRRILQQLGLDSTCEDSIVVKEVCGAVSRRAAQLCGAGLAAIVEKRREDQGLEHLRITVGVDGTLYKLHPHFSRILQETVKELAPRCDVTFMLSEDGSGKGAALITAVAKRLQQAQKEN

Caspase-3 = molecular target: T3, Caspase-3 (Homo sapiens, UniProt P42574); assay: caspase-3 inhibitors as off-family protease, SAR follow-up, selectivity assay for SENP protease inhibitor project, biochemical, luminescence, set 2 (AID 588599); type: functional
T3 sequence (P42574 whole entry): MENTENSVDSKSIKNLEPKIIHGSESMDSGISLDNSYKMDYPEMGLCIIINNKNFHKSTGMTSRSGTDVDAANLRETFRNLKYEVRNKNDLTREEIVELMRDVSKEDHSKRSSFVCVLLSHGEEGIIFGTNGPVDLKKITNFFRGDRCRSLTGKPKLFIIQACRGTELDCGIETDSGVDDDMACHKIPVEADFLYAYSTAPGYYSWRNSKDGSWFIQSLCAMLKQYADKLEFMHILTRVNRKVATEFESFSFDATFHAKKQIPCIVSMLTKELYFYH

[9] = molecular target: T4, Sentrin-specific protease 8 (Homo sapiens, UniProt Q96LD8); assay: SENP8 protease inhibitors, SAR follow-up, biochemical, luminescence, set 2 (AID 588601); type: functional
T4 sequence (Q96LD8 whole entry): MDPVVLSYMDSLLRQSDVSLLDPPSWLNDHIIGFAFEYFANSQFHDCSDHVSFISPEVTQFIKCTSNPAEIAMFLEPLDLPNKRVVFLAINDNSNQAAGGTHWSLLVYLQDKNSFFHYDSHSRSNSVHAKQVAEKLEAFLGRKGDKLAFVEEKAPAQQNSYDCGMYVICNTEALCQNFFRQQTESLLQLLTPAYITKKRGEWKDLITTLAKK

[10] = molecular target: T5, Sentrin-specific protease 7 (Homo sapiens, UniProt Q9BQF6); assay: SENP7 protease inhibitors, SAR follow-up, biochemical, luminescence, set 2 (AID 588600); type: functional
T5 sequence (Q9BQF6 whole entry): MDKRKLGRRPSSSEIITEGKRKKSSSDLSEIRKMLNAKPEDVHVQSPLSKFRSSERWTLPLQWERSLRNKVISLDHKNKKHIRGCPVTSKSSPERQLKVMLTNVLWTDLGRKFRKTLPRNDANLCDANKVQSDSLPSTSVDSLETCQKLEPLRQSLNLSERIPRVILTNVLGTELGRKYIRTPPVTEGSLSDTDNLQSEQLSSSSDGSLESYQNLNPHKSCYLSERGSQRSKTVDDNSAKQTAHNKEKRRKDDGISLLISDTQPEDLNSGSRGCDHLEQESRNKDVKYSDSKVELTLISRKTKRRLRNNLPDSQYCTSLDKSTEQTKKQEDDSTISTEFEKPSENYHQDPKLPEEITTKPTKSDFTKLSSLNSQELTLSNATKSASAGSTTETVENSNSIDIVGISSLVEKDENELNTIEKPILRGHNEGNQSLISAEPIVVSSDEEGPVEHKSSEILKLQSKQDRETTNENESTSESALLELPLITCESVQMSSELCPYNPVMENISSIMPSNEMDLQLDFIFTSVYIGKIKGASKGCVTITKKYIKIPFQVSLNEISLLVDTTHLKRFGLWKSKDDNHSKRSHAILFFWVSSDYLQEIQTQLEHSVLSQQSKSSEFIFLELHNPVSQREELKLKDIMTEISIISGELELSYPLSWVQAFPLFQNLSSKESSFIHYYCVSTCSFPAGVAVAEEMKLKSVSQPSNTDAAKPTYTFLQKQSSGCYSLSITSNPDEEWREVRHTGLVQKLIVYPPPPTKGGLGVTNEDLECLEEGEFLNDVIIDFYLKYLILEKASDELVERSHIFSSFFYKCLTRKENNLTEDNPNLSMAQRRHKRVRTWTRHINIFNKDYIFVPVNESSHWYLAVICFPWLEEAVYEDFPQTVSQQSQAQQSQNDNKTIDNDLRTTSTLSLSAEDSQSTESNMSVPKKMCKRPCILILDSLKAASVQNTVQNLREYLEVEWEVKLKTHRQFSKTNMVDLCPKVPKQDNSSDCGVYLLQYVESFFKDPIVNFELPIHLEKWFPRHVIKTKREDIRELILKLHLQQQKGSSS

[11] = molecular target: T6, Sentrin-specific protease 6 (Homo sapiens, UniProt Q9GZR1); assay: SENP6 protease inhibitors, SAR follow-up, biochemical, luminescence, set 2 (AID 588598); type: functional
T6 sequence (Q9GZR1 whole entry): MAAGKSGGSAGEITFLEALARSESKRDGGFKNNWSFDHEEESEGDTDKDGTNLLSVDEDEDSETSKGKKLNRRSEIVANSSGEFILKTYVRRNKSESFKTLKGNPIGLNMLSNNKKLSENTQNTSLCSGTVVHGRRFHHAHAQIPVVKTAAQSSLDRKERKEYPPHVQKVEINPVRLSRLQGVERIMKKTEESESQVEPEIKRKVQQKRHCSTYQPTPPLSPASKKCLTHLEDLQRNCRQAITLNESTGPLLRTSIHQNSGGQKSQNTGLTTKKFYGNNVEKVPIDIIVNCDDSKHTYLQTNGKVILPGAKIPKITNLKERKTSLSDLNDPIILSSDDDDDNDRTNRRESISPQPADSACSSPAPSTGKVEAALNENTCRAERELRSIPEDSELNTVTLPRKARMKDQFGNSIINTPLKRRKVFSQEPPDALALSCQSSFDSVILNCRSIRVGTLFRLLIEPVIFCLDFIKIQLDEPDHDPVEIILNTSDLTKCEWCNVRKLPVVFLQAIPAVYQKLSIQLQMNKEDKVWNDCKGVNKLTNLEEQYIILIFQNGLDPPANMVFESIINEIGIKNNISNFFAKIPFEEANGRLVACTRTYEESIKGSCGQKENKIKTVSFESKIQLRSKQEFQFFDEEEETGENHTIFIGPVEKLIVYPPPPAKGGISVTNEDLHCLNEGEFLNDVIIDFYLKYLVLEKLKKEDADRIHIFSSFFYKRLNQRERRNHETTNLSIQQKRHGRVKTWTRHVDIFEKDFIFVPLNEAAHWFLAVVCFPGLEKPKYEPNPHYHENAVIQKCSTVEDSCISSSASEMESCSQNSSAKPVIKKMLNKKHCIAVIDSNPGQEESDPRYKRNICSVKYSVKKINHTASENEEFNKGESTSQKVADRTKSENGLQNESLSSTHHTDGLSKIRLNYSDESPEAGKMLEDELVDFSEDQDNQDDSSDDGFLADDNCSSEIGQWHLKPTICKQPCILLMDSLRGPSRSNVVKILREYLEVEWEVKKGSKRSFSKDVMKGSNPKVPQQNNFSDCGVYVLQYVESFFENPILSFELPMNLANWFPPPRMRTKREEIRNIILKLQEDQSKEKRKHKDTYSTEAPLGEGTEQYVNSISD

[12] = cytotoxicity in HEK-293T cells, dose response, cytotoxicity control for TCR NF-kB inhibitor project, luminescence, T-cell screen hits (AID 489026); type: functional, cell-based;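 also: cells exposed to compound about 14 hours before the viability readout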
Phospholipase A2 = Phospholipase A2 (Homo sapiens, UniProt P04054); assay: PLA2 enzyme inhibitors, dose response, counter-screen for ATG4B inhibitor project, biochemical, set 2 (AID 588586); type: functional
Sequence of Phospholipase A2 (P04054 whole entry): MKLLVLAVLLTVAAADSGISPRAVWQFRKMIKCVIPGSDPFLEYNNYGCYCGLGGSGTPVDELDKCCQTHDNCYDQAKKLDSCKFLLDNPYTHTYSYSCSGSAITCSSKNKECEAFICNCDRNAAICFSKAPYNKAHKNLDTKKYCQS

Cysteine protease ATG4B = molecular target: T7, Cysteine protease ATG4B (Homo sapiens, UniProt Q9Y4P1); assay: ATG4B protease inhibitors, dose response, biochemical, fluorescence, set 2 (AID 588584); type: functional
T7 sequence (Q9Y4P1 whole entry): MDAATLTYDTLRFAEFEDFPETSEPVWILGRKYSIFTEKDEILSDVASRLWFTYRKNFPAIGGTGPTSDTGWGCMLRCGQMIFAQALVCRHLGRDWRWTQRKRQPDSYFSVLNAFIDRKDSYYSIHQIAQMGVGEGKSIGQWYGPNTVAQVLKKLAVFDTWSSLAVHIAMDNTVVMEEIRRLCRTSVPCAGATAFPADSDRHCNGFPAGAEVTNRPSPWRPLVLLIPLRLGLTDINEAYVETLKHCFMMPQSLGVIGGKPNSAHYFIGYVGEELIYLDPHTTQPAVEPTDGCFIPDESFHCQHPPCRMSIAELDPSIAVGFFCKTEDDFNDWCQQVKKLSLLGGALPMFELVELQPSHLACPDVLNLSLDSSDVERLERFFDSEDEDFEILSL

## Cc1nc(Nc2ccc(Cl)cc2Cl)sc1C(=O)Nc1ccccc1
[1]
  CC50: > 40 µM (active)
[2]
  AC50: 7.83 µM (active)
Escherichia coli
  AC50: 56.1 µM (active)

## Cc1ccc(CNc2ncnc3ccc(-c4ccoc4C)cc23)o1
[3]
  AC50: 695 nM (active)

## O=C1C(=Cc2cccc(O)c2O)SC(=S)N1CCCN1CCOCC1
[4]
  IC50: > 80 µM (inactive)
[5]
  CC50: 100 µM (active)
[6]
  IC50: 45.5 µM (active)

## O=C(COC(=O)c1cccnc1O)Nc1ccc(N2CCCCC2)cc1
Jurkat
  IC50: 190 nM (active)
[7]
  IC50: > 80 µM (inactive)
[8]
  AC50: 1.03 µM (active)

## O=c1c2ccccc2nc(/C=C/c2ccncc2)n1Cc1ccccc1
Hexokinase-1
  IC50: > 80 µM (inactive)
Hexokinase HKDC1
  IC50: > 80 µM (inactive)

## COc1ccc(N2CC(C(=O)N/N=C/c3c[nH]c4ccccc34)CC2=O)cc1 (stereo not given)
Caspase-3
  IC50: > 99 µM (inactive)
[9]
  IC50: > 99 µM (inactive)
[10]
  IC50: > 99 µM (inactive)
[11]
  IC50: > 99 µM (inactive)

## CC1=Nc2ccccc2/C1=C\c1sc(Nc2ccc(C)cc2)nc1O
[2]
  AC50: 0.546 µM (active)
[12]
  IC50: 45.8 µM (inactive)
Phospholipase A2
  IC50: 22.3 µM (inactive)
Cysteine protease ATG4B
  IC50: 30.6 µM (inactive)
